Source: the supplement of paper PMC10307832

Legend:
Test in all cases: relative viability (nuclei count vs DMSO), 5 days (fraction); higher = more cells survive
[1] = compound: CN1C=C(C2=CC=CC=C21)/C=C\3/C4=C(C=CC=N4)NC3=O + Cc1nc(NC(=O)N2CCC[C@H]2C(N)=O)sc1-c1ccnc(C(C)(C)C(F)(F)F)c1 [Alpelisib] (partner 2 µM)
In short: (§1)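 Nuclei were stained with Hoechst during a one-step fixation (final 0.05% Triton X-100, 1% formaldehyde, 1 ug/ml Hoechst) carried out 5 days after dosing, then counted on 4× images. The cells, lung cancer lines in 1536-well plates, had been dosed by pin tool the day after seeding with one drug alone or a fixed anchor-drug dose plus five library-drug doses (not always all listed) in √10 steps. Relative viability is the nuclei count in treated wells divided by that in vehicle wells, and each value is the median of duplicate plates.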

[2] = compound: CC(=O)Nc1cccc(-n2c(=O)n(C3CC3)c(=O)c3c(Nc4ccc(I)cc4F)n(C)c(=O)c(C)c32)c1 [Trametinib] + COc1cccc2cc(-c3nc([C@H]4CC[C@H](C(=O)O)CC4)n4ncnc(N)c34)[nH]c12 [OSI-027] (partner 0.5 µM)
In short: as §1

[3] = compound: CN1C=C(C2=CC=CC=C21)/C=C\3/C4=C(C=CC=N4)NC3=O + O=C(c1cc(Cc2n[nH]c(=O)c3ccccc23)ccc1F)N1CCN(C(=O)C2CC2)CC1 [Olaparib] (partner 8 µM)
In short: as §1

[4] = compound: CN1C=C(C2=CC=CC=C21)/C=C\3/C4=C(C=CC=N4)NC3=O + CC(=O)c1c(C)c2cnc(Nc3ccc(N4CCNCC4)cn3)nc2n(C2CCCC2)c1=O [Palbociclib] (partner 0.5 µM)
In short: as §1

| Cell Line | relative viability ([1]; first compound 0.02 µM) | relative viability ([1]; first compound 0.06325 µM) | relative viability ([1]; first compound 0.2 µM) | relative viability ([1]; first compound 0.6325 µM) | relative viability ([1]; first compound 2 µM) | relative viability ([2]; first compound 0.0025 µM) | relative viability ([2]; first compound 0.007906 µM) | relative viability ([2]; first compound 0.025 µM) | relative viability ([2]; first compound 0.07906 µM) | relative viability ([2]; first compound 0.25 µM) | relative viability ([3]; first compound 0.02 µM) | relative viability ([3]; first compound 0.06325 µM) | relative viability ([3]; first compound 0.2 µM) | relative viability ([3]; first compound 0.6325 µM) | relative viability ([3]; first compound 2 µM) | relative viability ([4]; first compound 0.02 µM) | relative viability ([4]; first compound 0.06325 µM) | relative viability ([4]; first compound 0.2 µM) | relative viability ([4]; first compound 0.6325 µM) | relative viability ([4]; first compound 2 µM) |
| --- | --- | --- | --- | --- | --- | --- | --- | --- | --- | --- | --- | --- | --- | --- | --- | --- | --- | --- | --- | --- |
| H3255 | 0.705 | 0.722 | 0.642 | 0.757 | 0.855 | 0.595 | 0.571 | 0.462 | 0.397 | 0.338 | 0.64 | 0.554 | 0.55 | 0.606 | 0.602 | 0.33 | 0.327 | 0.309 | 0.317 | 0.296 |
| Calu-6 | 0.823 | 0.856 | 0.959 | 0.975 | 0.911 |  |  |  |  |  | 0.504 | 0.528 | 0.569 | 0.488 | 0.787 |  |  |  |  |  |
| SW 900 |  |  |  |  |  | 0.629 | 0.539 | 0.424 | 0.428 | 0.167 | 0.463 |  |  | 0.768 | 0.655 | 0.428 |  |  | 0.542 | 0.563 |
| NCI-H650 | 1.07 | 1.12 |  | 1.24 | 1.09 | 0.645 | 0.765 | 0.619 | 0.714 | 0.567 | 0.464 | 0.418 |  | 0.434 | 0.411 | 0.385 | 0.341 |  | 0.356 | 0.391 |
| NCI-H460 | 0.539 | 0.466 | 0.53 |  | 0.391 | 0.557 | 0.332 | 0.244 | 0.141 | 0.0441 | 0.463 | 0.417 | 0.491 | 0.435 | 0.367 | 0.209 | 0.153 | 0.0627 | 0.103 | 0.157 |
| NCI-H2228 | 0.718 | 0.645 |  | 0.919 | 0.674 | 0.498 | 0.427 | 0.222 | 0.237 | 0.192 | 0.951 | 0.534 | 0.579 | 0.476 | 0.768 | 0.744 | 0.572 | 0.394 | 0.769 | 0.906 |
| NCI-H2085 | 0.967 | 0.849 | 1.01 | 0.852 | 0.949 | 0.469 | 0.352 | 0.281 | 0.329 | 0.298 | 0.806 | 0.75 | 0.86 | 0.857 | 0.847 | 0.452 | 0.473 | 0.508 | 0.471 | 0.461 |
| HCC-366 | 0.296 | 0.328 | 0.284 | 0.31 | 0.267 | 0.684 | 0.763 | 0.371 | 0.414 | 0.201 | 0.315 | 0.287 | 0.36 | 0.372 | 0.288 | 0.239 | 0.281 | 0.338 | 0.397 | 0.304 |
| EPLC-272H | 1.14 | 0.752 |  | 0.83 | 0.835 | 0.319 | 0.285 | 0.192 | 0.129 | 0.183 | 1.16 | 0.706 | 0.712 |  | 0.682 | 0.331 | 0.271 |  | 0.336 | 0.274 |
| 201T | 0.998 | 1.04 | 1.08 | 1 | 0.913 | 0.707 | 0.642 | 0.633 | 0.443 | 0.505 | 0.821 | 0.781 | 0.868 | 0.931 | 0.87 | 0.321 | 0.359 | 0.377 | 0.35 | 0.323 |
| NCI-H3122 | 0.727 | 0.764 | 0.722 | 0.802 | 1 | 0.555 | 0.352 | 0.211 | 0.169 | 0.159 | 0.621 | 0.578 | 0.653 | 0.681 | 0.652 | 0.137 | 0.181 | 0.202 | 0.183 | 0.235 |
| NCI-H1650 |  |  |  |  |  | 0.632 | 0.604 | 0.534 | 0.451 | 0.204 | 0.843 | 0.69 | 0.718 | 0.714 | 0.749 | 0.299 | 0.274 | 0.267 | 0.299 | 0.353 |
| NCI-H2342 |  |  |  |  |  | 0.56 | 0.552 |  | 0.471 | 0.577 | 0.49 | 0.449 | 0.47 | 0.453 | 0.461 | 0.552 | 0.557 | 0.519 | 0.537 | 0.485 |
| NCI-H522 |  |  |  |  |  | 0.592 | 0.653 | 0.595 | 1.57 | 0.587 | 0.615 | 0.685 | 0.679 | 0.556 | 0.691 | 1.04 | 1.01 | 1.08 | 0.874 | 1.06 |
| EBC-1 | 0.727 | 0.776 | 0.894 | 0.823 | 0.784 |  |  |  |  |  | 0.728 | 0.68 | 0.623 | 0.625 | 0.585 |  |  |  |  |  |
| ChaGo-K-1 |  |  |  |  |  | 0.558 | 0.488 | 0.51 | 0.423 | 0.403 | 0.426 | 0.405 | 0.414 | 0.387 | 0.339 | 0.922 | 0.936 | 0.853 | 0.89 | 0.909 |
| IA-LM | 0.972 | 0.549 | 0.906 | 0.736 | 0.681 |  |  |  |  |  | 0.726 | 0.726 | 0.749 | 0.896 | 0.802 |  |  |  |  |  |
| NCI-H1703 | 0.436 | 0.299 | 0.324 | 0.41 | 0.268 |  |  |  |  |  | 0.377 | 0.513 | 0.419 | 0.401 | 0.421 |  |  |  |  |  |
| A549 | 0.863 | 0.736 | 0.843 | 0.808 | 0.691 |  |  |  |  |  | 0.325 | 0.352 |  | 0.278 | 0.355 |  |  |  |  |  |
| NCI-H1623 |  |  |  |  |  | 0.361 | 0.35 | 0.326 | 0.28 | 0.311 |  |  |  |  |  |  |  |  |  |  |
| NCI-H596 | 0.545 | 0.413 | 0.529 | 0.49 | 0.493 | 0.531 | 0.62 | 0.407 | 0.487 | 0.249 | 0.545 | 0.744 | 0.648 | 0.558 | 0.554 |  |  |  |  |  |
| NCI-H1563 | 0.898 | 0.951 | 0.73 | 0.977 | 0.863 | 0.745 | 0.819 | 0.772 | 0.884 | 0.623 |  |  |  |  |  |  |  |  |  |  |
